Columns and labels:
[1] = biological target: T1, aromatase (Homo sapiens, UniProt P11511); test: Aromatase inhibition assay in JEG-3 cells ([1β-3H] androstenedione, tritiated water release); format: cell-based; settings: 1.25 hour incubation, duplicate
T1 construct: JEG-3 which constitutively expresses high amount of aromatase and steroid sulfatase; endogenous in cells; host or cells: JEG-3
T1 sequence (P11511 1-503): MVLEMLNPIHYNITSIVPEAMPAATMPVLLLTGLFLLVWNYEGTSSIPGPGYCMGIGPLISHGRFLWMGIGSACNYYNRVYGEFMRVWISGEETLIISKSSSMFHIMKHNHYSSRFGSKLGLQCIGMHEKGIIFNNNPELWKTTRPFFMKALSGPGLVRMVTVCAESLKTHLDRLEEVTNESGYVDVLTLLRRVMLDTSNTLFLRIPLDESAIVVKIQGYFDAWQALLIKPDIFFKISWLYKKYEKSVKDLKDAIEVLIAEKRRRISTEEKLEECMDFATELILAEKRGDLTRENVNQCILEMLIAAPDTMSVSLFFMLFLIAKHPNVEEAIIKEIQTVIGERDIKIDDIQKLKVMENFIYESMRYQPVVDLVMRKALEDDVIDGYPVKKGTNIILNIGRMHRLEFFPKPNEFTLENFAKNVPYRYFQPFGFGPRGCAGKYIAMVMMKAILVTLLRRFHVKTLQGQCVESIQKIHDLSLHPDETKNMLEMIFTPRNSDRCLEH
Experimental: (§1) Aromatase and steroid sulfatase enzymes inhibitions were evaluated in the human chorionic carcinoma cell line JEG-3 which constitutively expresses high amount of aromatase and steroid sulfatase.
For aromatase inhibition assay, JEG-3 cells were seeded into 96-well plates at 35,000 cells/well and maintained in MEM containing supplements. When reaching 80% confluent, the cells were washed once with serum-free MEM, incubated with [1β-^3H] androstenedione (A4, 0.2 μCi/ml) for 1.25 hour in the presence of the test substances added in a concentration series. The product, tritiated water (^3H2O), was separated using 2.5% (w/v) dextran-coated charcoal at 4-8° C. for 2 hours. The supernatant radioactivity was measured by a MicroBeta scintillation counter.
(§2) Experiments are performed in duplicate. The inhibitory concentration of 50% of the enzymatic activity is calculated.

[2] = biological target: T2, steroid sulfatase (Homo sapiens, UniProt P08842); test: Steroid sulfatase (STS) inhibition assay in JEG-3 cells ([6,7-3H] estrone sulfate); format: cell-based; settings: 1 hour at 37° C., duplicate
T2 construct: JEG-3 which constitutively expresses high amount of aromatase and steroid sulfatase; endogenous in cells; host or cells: JEG-3
T2 sequence (P08842 22-583): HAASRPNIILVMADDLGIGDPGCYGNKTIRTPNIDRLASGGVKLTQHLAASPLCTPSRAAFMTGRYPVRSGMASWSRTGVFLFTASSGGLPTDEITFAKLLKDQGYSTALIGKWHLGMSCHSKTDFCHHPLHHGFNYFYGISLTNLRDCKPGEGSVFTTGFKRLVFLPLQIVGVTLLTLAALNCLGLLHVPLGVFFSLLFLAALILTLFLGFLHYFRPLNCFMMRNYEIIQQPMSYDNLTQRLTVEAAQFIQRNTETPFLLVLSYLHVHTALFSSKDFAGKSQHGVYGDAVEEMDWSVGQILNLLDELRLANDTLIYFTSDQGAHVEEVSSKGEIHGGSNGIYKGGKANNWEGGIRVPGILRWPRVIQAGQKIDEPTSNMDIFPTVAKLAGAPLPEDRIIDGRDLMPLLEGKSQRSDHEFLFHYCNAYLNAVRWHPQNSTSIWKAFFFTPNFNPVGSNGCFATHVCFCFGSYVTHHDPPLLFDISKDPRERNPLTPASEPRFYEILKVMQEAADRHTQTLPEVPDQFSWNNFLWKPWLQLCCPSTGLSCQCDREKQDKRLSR
Experimental: as §1
For STS assay, JEG-3 cells were seeded into 24-well culture plates at 150,000 cells/ml/well and maintained in MEM containing supplements overnight. When reaching 80% confluent, the cells were washed once with serum-free MEM, loaded with 1 ml of substrate mix containing [6,7-3H] Estrone sulfate (E1S, 0.6 μCi/ml) and [4-14C] Estrone (E1, 4 nCi/ml) in the presence of compounds in a concentration series, and incubated for 1 hour at 37° C. The product [3H]E1 was separated from E1S by toluene partition using [4-14C]E1 to monitor extraction procedural losses, and the toluene fraction radioactivity was measured by a MicroBeta scintillation counter.
as §2

N#Cc1ccc(Cn2cnc3ccccc32)cc1-c1ccc(OS(N)(=O)=O)cc1 [Example 1, 5′-((1H-Benzo[d]imidazol-1-yl)methyl)-2′-cyano-[1,1′-biphenyl]-4-yl sulfamate]
IC50 [1]: 1.2 nM
IC50 [2]: 2 nM

N#Cc1ccc(Nn2cnc3ccccc32)cc1-c1ccc(OS(N)(=O)=O)cc1 [Example 2, 5′-(1H-Benzo[d]imidazol-1-ylamino)-2′-cyano-[1,1′-biphenyl]-4-yl sulfamate]
IC50 [1]: 2 nM
IC50 [2]: 6.8 nM

Cc1nc2ccccc2n1Cc1ccc(C#N)c(-c2ccc(OS(N)(=O)=O)cc2)c1 [Example 3, 2′-Cyano-5′-((2-methyl-1H-benzo[d]imidazol-1-yl)methyl)biphenyl-4-yl sulfamate]
IC50 [1]: > 60 nM
IC50 [2]: 18.9 nM

N#Cc1ccc(Cn2nnc3ccccc32)cc1-c1ccc(OS(N)(=O)=O)cc1 [Example 4, 5′-((1H-Benzo[d][1,2,3]triazol-1-yl)methyl)-2′-cyano-[1,1′-biphenyl]-4-yl sulfamate]
IC50 [1]: 4.8 nM
IC50 [2]: 12.1 nM

CN(c1ccc(C#N)c(-c2ccc(OS(N)(=O)=O)cc2)c1)n1cnc2ccccc21 [Example 5, 5′-((1H-Benzo[d]imidazol-1-yl)(methyl)amino)-2′-cyano-[1,1′-biphenyl]-4-yl sulfamate]
IC50 [1]: 3.2 nM
IC50 [2]: 25.6 nM

N#Cc1ccc(N(CC2CC2)n2cnc3ccccc32)cc1-c1ccc(OS(N)(=O)=O)cc1 [Example 6, 5′-((1H-Benzo[d]imidazol-1-yl)(cyclopropylmethyl)amino)-2′-cyano-[1,1′-biphenyl]-4-yl sulfamate]
IC50 [1]: 53.2 nM
IC50 [2]: > 60 nM

N#Cc1ccc(Cn2c(C(F)(F)F)nc3ccccc32)cc1-c1ccc(OS(N)(=O)=O)cc1 [Example 7, 2′-Cyano-5′-((2-(trifluoromethyl)-1H-benzo[d]imidazol-1-yl)methyl)biphenyl-4-yl sulfamate]
IC50 [1]: > 60 nM
IC50 [2]: 16.4 nM

N#Cc1ccc(Cn2nnc3cccnc32)cc1-c1ccc(OS(N)(=O)=O)cc1 [Example 8, 5′-((3H-[1,2,3]Triazolo[4,5-b]pyridin-3-yl)methyl)-2′-cyano-[1,1′-biphenyl]-4-yl sulfamate]
IC50 [1]: 6.3 nM
IC50 [2]: 23.6 nM

N#Cc1ccc(Cn2cnc3ccccc32)nc1-c1ccc(OS(N)(=O)=O)cc1 [Example 10, 4-(6-((1H-Benzo[d]imidazol-1-yl)methyl)-3-cyanopyridin-2-yl)phenyl sulfamate]
IC50 [1]: 3.2 nM
IC50 [2]: 9.1 nM

N#Cc1ccc(Nn2nnc3ccccc32)cc1-c1ccc(OS(N)(=O)=O)cc1 [Example 11, 5′-(1H-Benzo[d][1,2,3]triazol-1-ylamino)-2′-cyanobiphenyl-4-yl sulfamate]
IC50 [1]: 1.2 nM
IC50 [2]: 18.4 nM

N#Cc1ccc(Cn2cnc3cccnc32)cc1-c1ccc(OS(N)(=O)=O)cc1 [Example 12, 5′-((3H-Imidazo[4,5-b]pyridin-3-yl)methyl)-2′-cyano-[1,1′-biphenyl]-4-yl sulfamate]
IC50 [1]: 0.5 nM
IC50 [2]: 7 nM

CN(c1ccc(C#N)c(-c2ccc(OS(N)(=O)=O)cc2)c1)n1nnc2ccccc21 [Example 13, 5′-((1H-Benzo[d][1,2,3]triazol-1-yl)(methyl)amino)-2′-cyanobiphenyl-4-yl sulfamate]
IC50 [1]: 13.1 nM
IC50 [2]: > 60 nM

N#Cc1ccc(Cn2cnc3cccnc32)nc1-c1ccc(OS(N)(=O)=O)cc1 [Example 14, 4-(6-((3H-Imidazo[4,5-b]pyridin-3-yl)methyl)-3-cyanopyridin-2-yl)phenyl sulfamate]
IC50 [1]: 7 nM
IC50 [2]: 21.7 nM

N#Cc1cnc(Nn2cnc3ccccc32)nc1-c1ccc(OS(N)(=O)=O)cc1 [Example 15, 4-(2-(1H-Benzo[d]imidazol-1-ylamino)-5-cyanopyrimidin-4-yl)phenyl sulfamate]
IC50 [1]: 17.5 nM
IC50 [2]: 14.6 nM

CN(c1ncc(C#N)c(-c2ccc(OS(N)(=O)=O)cc2)n1)n1cnc2ccccc21 [Example 16, 4-(2-((1H-Benzo[d]imidazol-1-yl)(methyl)amino)-5-cyanopyrimidin-4-yl)phenyl sulfamate]
IC50 [1]: 6.4 nM
IC50 [2]: 22 nM

CSc1cc(-c2cc(Cn3cnc4ccccc43)ccc2C#N)ccc1OS(N)(=O)=O [Example 18, 5′-((1H-Benzo[d]imidazol-1-yl)methyl)-2′-cyano-3-(methylthio)-[1,1′-biphenyl]-4-yl sulfamate]
IC50 [1]: 1.2 nM
IC50 [2]: 26.4 nM

CSc1ccc(-c2cc(Cn3cnc4ccccc43)ccc2C#N)cc1OS(N)(=O)=O [Example 19, 5′-((1H-benzo[d]imidazol-1-yl)methyl)-2′-cyano-4-(methylthio)-[1,1′-biphenyl]-3-yl sulfamate]
IC50 [1]: 2.2 nM
IC50 [2]: > 60 nM

CSc1cc(-c2cc(Nn3cnc4ccccc43)ccc2C#N)ccc1OS(N)(=O)=O [Example 20, 5′-((1H-Benzo[d]imidazol-1-yl)amino)-2′-cyano-3-(methylthio)-[1,1′-biphenyl]-4-yl sulfamate]
IC50 [1]: 2.9 nM
IC50 [2]: 52.3 nM

CSc1ccc(-c2cc(Nn3cnc4ccccc43)ccc2C#N)cc1OS(N)(=O)=O [Example 21, 5′-((1H-Benzo[d]imidazol-1-yl)amino)-2′-cyano-4-(methylthio)-[1,1′-biphenyl]-3-yl sulfamate]
IC50 [1]: 2.2 nM
IC50 [2]: > 60 nM

CN(c1ccc(C#N)c(-c2ccc(OS(N)(=O)=O)cc2)n1)n1cnc2ccccc21 [Example 23, 4-(6-((1H-Benzo[d]imidazol-1-yl)(methyl)amino)-3-cyanopyridin-2-yl)phenyl sulfamate]
IC50 [1]: 6.5 nM
IC50 [2]: 7.1 nM

N#Cc1cnc(Cn2cnc3cccnc32)nc1-c1ccc(OS(N)(=O)=O)cc1 [Example 25, 4-(2-((3H-Imidazo[4,5-b]pyridin-3-yl)methyl)-5-cyanopyrimidin-4-yl)phenyl sulfamate]
IC50 [1]: 6.2 nM
IC50 [2]: 10.7 nM

CSc1cc(-c2cc(N(C)n3cnc4ccccc43)ccc2C#N)ccc1OS(N)(=O)=O [Example 27, 5′-((1H-Benzo[d]imidazol-1-yl)(methyl)amino)-2′-cyano-3-(methylthio)-[1,1′-biphenyl]-4-yl sulfamate]
IC50 [1]: 4.6 nM
IC50 [2]: 17.8 nM

CSc1ccc(-c2cc(N(C)n3cnc4ccccc43)ccc2C#N)cc1OS(N)(=O)=O [Example 28, 5′-((1H-Benzo[d]imidazol-1-yl)(methyl)amino)-2′-cyano-4-(methylthio)-[1,1′-biphenyl]-3-yl sulfamate]
IC50 [1]: 5.8 nM
IC50 [2]: > 60 nM

CN(c1cc(-c2ccc(OS(N)(=O)=O)cc2)c(C#N)cn1)n1cnc2ccccc21 [Example 29, 4-(2-((1H-Benzo[d]imidazol-1-yl)(methyl)amino)-5-cyanopyridin-4-yl)phenyl sulfamate]
IC50 [1]: 2.5 nM
IC50 [2]: 37.6 nM

N#Cc1ccc(Cn2cnc3ccccc32)cc1-c1ccc(OS(N)(=O)=O)cn1 [Example 30, 6-(5-((1H-Benzo[d]imidazol-1-yl)methyl)-2-cyanophenyl)pyridin-3-yl sulfamate]
IC50 [1]: 5.9 nM
IC50 [2]: 7.2 nM

N#Cc1ncc(Nn2cnc3ccccc32)nc1-c1ccc(OS(N)(=O)=O)cc1 [Example 32, 4-(6-(1H-Benzo[d]imidazol-1-ylamino)-3-cyanopyrazin-2-yl)phenyl sulfamate]
IC50 [1]: 37.6 nM
IC50 [2]: 19.5 nM

N#Cc1ccc(Cn2cnc3cccnc32)cc1-c1ccc(OS(N)(=O)=O)cn1 [Example 33, 6-(5-((3H-Imidazo[4,5-b]pyridin-3-yl)methyl)-2-cyanophenyl)pyridin-3-yl sulfamate]
IC50 [1]: 9 nM
IC50 [2]: 17.6 nM

Source: patent US9682941B2, “Substituted biphenyl analogues as dual inhibitors of aromatase and sulfatase” (ESTRYX PHARMA LIMITED, priority 2013, dated 2017)
